Read-outs that look alike come from different tables or passages of the source. Marks after values point to notes of the source that are not given here. Residues, ends and D or L forms follow the SMILES beside them.
Tests used:
[1] = molecular target: T1, human sweet taste receptor (hT1R2/hT1R3) (Homo sapiens, UniProt Q7RTX0+Q8TE23); assay: DMR assay (Epic reader) on R2/R3 U2OS cells, endogenous G proteins; assay type: cell-based; details: for EC50: R2/R3 U2OS cells, peak DMR response; for ΔlogR DMR Mean: Table 2, operational model, logR minus sucralose logR; for Activity in DMR assay Emax: top asymptote of dose-response normalized to 1 mM sucralose
T1 construct: expressed in transfected cells
T1 sequence (Q8TE23 20-839): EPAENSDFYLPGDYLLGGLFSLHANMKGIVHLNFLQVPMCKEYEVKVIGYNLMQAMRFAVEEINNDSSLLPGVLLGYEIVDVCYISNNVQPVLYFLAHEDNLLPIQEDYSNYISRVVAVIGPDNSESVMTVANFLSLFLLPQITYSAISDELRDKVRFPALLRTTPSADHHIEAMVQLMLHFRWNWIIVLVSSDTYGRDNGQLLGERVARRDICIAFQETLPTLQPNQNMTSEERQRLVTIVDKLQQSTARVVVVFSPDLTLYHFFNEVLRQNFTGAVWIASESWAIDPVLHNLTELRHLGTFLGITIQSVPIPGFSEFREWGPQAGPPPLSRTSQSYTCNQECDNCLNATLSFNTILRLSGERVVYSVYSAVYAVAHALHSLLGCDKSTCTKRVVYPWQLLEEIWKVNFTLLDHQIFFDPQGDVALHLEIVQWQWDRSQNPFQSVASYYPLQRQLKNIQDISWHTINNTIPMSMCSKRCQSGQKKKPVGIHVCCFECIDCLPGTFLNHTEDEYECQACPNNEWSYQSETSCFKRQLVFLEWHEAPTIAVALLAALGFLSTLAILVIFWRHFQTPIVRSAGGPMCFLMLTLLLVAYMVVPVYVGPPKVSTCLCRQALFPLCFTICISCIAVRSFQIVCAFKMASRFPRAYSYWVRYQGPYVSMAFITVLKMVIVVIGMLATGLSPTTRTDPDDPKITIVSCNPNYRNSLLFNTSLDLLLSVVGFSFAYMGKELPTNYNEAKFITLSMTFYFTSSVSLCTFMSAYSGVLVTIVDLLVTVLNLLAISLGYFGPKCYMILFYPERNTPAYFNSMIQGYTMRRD
T1 sequence (Q7RTX0 21-852): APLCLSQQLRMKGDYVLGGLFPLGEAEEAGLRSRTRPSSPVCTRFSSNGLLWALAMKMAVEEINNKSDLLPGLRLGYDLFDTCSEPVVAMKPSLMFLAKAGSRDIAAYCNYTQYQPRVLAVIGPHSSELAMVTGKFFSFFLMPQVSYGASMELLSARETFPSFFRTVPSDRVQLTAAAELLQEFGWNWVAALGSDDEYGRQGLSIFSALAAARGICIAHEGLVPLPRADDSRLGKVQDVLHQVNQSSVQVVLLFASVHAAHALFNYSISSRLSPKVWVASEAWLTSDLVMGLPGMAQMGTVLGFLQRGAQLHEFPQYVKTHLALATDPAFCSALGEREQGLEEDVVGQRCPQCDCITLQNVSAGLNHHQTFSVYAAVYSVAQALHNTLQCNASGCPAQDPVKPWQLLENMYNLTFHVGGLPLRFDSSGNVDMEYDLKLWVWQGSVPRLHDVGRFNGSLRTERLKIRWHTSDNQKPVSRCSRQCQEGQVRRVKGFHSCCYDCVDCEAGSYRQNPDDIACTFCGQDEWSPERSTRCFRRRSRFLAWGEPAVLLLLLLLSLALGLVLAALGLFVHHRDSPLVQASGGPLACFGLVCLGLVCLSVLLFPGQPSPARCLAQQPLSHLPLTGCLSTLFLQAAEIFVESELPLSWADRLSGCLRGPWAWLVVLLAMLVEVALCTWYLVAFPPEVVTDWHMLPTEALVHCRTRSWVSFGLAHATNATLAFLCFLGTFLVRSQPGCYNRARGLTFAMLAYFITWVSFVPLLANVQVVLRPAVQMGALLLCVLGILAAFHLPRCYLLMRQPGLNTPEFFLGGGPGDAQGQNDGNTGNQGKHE
Method: The plates were incubated in the tissue culture hood for 20 min to allow cells to settle evenly at the bottom of the microplate and further cultured at 37°C in an atmosphere of 5% CO2 for 18–24 h. The next day, the cells were subjected to functional analysis using DMR. […] When indicated, data for agonist dose-responses were normalized to data obtained with a maximum concentration of sucralose (1 mM) and then fitted and plotted using GraphPad Prism (San Diego, CA) and non-linear regression analysis.
(§1) This value, that we termed pEC50Ratio (sucralose) or pEC50R (sucralose), was calculated with EC50 values obtained in the two assay systems. This transformation also allowed determination of an average and a standard error for the pEC50R (sucralose). The two sets of data (DMR and FLIPR data) were then analyzed with an un-paired t-test (α = 0.05). To calculate relative efficacy bias between the two assays, we captured the top asymptote value from each activity-normalized dose-response curve, as provided by the curve fit, calculated an average and a standard deviation (sd) for each agonist and then analyzed the data pairs with an un-paired t-test (α = 0.05). […] The following steps were followed: 1) Using the PRISM software, we re-analyzed each ligand’s dose-response data obtained in each assay with non-linear regression and the users-defined equation “New Operational Model with TauKa ratios” and retrieved logR values from the fits. 2) Subtracted each ligand’s logR value with that of our standard, the sucralose logR value, obtained from the same data set (each ligand dose-response assay data used in this analysis was accompanied with a sucralose dose-response ran on the same day), producing the ΔlogR value for leach ligand in each assay. 3) Calculated the mean and SEM from ΔlogR replicates (from three to nine independent dose-response analysis, in the two different assays). 4) Calculated ΔΔlogR values by subtracting the averaged ligands’ ΔlogR FLIPR values with the averaged ligands’ ΔlogR DMR values.

[2] = molecular target: T2, human sweet taste receptor (hT1R2/hT1R3) coupled to Gα15 (Homo sapiens, UniProt Q7RTX0+Q8TE23); assay: FLIPR calcium mobilization assay, R2/R3 U2OS cells transduced with Gα15 baculovirus; assay type: cell-based; details: for ΔlogR FLIPR Mean: FLIPR-Gα15, operational model, logR minus sucralose logR; for Activity in FLIPR assay Emax: top asymptote of dose-response normalized to 1 mM sucralose; for ΔΔlogR Mean: ΔlogR FLIPR-Gα15 minus ΔlogR DMR; for Bias factor: inverse log of ΔΔlogR, FLIPR-Gα15 vs DMR
T2 construct: expressed in transfected cells
T2 sequence (Q8TE23 20-839): T1 sequence (Q8TE23 20-839)
T2 sequence (Q7RTX0 21-852): T1 sequence (Q7RTX0 21-852)
Method: The Gα15 coding sequence was inserted in the HindIII-NotI sites and recombinant virus was generated using the Bac-to-Bac system (Life Technologies). Virus was further amplified by propagation in Sf9 cells grown in suspension using Sf900-II media. Virus titers were determined by plaque assay on Sf9 cells.
Cells were gently mixed with the virus at a multiplicity of infection (MOI) of 5. Using a multidrop, 70 μl per well of the cell and virus mixture was dispensed in a 384-well clear bottom plate (Fisher). After 24 h of incubation in a humidified 37°C tissue culture incubator, trichostatin A was added to a final concentration of 0.3 μM and the cells were incubated for another 18–24 h at 34°C. On the day of the experiment, cells were loaded with 4 μM of the calcium indicator Fluo-4 AM (Invitrogen) in D-PBS for 1 h at room temperature. After washing the cells with D-PBS using a cell washer (BioTek) and a 30-minute rest time, the cell plate and the compound plate were transferred into the FLIPR-Tetra (Molecular Devices). […] Loading and the FLIPR assay were run as described above. When indicated, data for agonist dose-responses were normalized to data obtained with a maximum concentration of sucralose (1 mM) and then fitted and plotted using GraphPad Prism (San Diego, CA) and non-linear regression analysis.
as §1

[3] = read-out: Activity in DMR assay EC50
[4] = read-out: Activity in DMR assay pEC50 (converted)
[5] = R2/R3 U2OS cells expressing Gα15, read-out: Activity in FLIPR assay EC50
[6] = R2/R3 U2OS cells expressing Gα15, read-out: Activity in FLIPR assay pEC50 (converted)
[7] = Activity in FLIPR assay EC50, R2/R3 U2OS cells expressing Gα15
[8] = Activity in FLIPR assay pEC50, R2/R3 U2OS cells expressing Gα15

leftward shift in the sucralose dose-response in the DMR assay ([1]; 25 μM SE-2, mean ± sd, n = 3) [fold]	enhancement factor of the sucralose dose-response in the FLIPR assay ([2]; 25 μM SE-2, Gα15, mean ± sd, n = 4) [fold]	EC50 [1, 3] [µM]	EC50 [1, 4] [µM]	ΔlogR DMR Mean [1]	Activity in DMR assay Emax [1]	ΔlogR FLIPR Mean [2]	Activity in FLIPR assay Emax ([2]; Gα15)	EC50 [2, 5] [µM]	EC50 [2, 6] [µM]	ΔΔlogR Mean [2]	EC50 [2, 7] [µM]	EC50 [2, 8] [µM]	Bias factor [2]	response in the FLIPR assay, in words ([2]; R2/R3 U2OS cells transduced with Gα15)	Compound	agonist activity on its own in the DMR assay, in words ([1]; 25 μM SE-2 at lower sucralose concentrations)
5.1 ± 1.5	7.3 ± 0.9														Cc1sc2[nH]c(=O)nc(N)c2c1C [SE-2]	did not produce any agonist activity on its own
		1.3	1.22	2.07	133	2.15	159****	0.7	0.716	0.08					Cc1cc(C)c2c(c1)[C@H](NC(=O)c1conc1C)CCC2 [S679]	
		37	32.5	0.35	106	0.52	100			0.18	20	19.4	1.5		C[C@@H](NC(=O)[C@@H](N)CC(=O)O)C(=O)NC1C(C)(C)SC1(C)C [Alitame]	
		1220	906	−0.99	122	−0.74	73****	253	251				1.8		CC1=CC(=O)NS(=O)(=O)O1 [acesulfame K]	
														readily detected	O=C(CO)[C@@H](O)[C@H](O)[C@H](O)CO [D-fructose]	
				−0.31	145	−0.47	90****			−0.16					O=C1NS(=O)(=O)c2ccccc21 [Saccharin]	
			3.78	1.31	102	1.67	164****	2.2	2.12	0.36					CCCOc1ccc([N+](=O)[O-])cc1N [P-4000]	
			1.51	1.91	130	2.14	170****	0.7	0.665	0.22					COCc1cncc(-c2ccc(C(C)(C)C(=O)NCC(C)C)cc2)n1 [S1313]	
		33	30.7	0.20	57****	0.38	87****		23.1	0.18					CCOc1ccc(NC(N)=O)cc1 [Dulcin]	
		9.8	9.48	1.04	109	1.17	105	4.7	4.62	0.13					COC(=O)[C@H](Cc1ccccc1)NC(=O)[C@H](CC(=O)O)NC(=O)Nc1ccc(C#N)cc1 [Superaspartame]	
		127	114	0.09	141	0.13	102			0.04	51	50.1			C=C1C[C@@]23CC[C@H]4[C@@](C)(CCC[C@@]4(C)C(=O)O[C@@H]4O[C@H](CO)[C@@H](O)[C@H](O)[C@H]4O)[C@@H]2CC[C@]1(O[C@@H]1O[C@H](CO)[C@@H](O)[C@H](O)[C@H]1O[C@@H]1O[C@H](CO)[C@@H](O)[C@H](O)[C@H]1O)C3 [Stevioside]	
		4.3	4.09	1.38	97**	1.45	98**		2.28	0.07					C[C@H](NC(=Nc1ccc(C#N)cc1)NCC(=O)O)c1ccccc1 [SC-45647]	

Compound	leftward shift in the sucralose dose-response in the DMR assay ([1]; 25 μM SE-2, mean ± sd, n = 3) [fold]	enhancement factor of the sucralose dose-response in the FLIPR assay ([2]; 25 μM SE-2, Gα15, mean ± sd, n = 4) [fold]	EC50 [1, 3] [µM]	EC50 [1, 4] [µM]	ΔlogR DMR Mean [1]	Activity in DMR assay Emax [1]	ΔlogR FLIPR Mean [2]	Activity in FLIPR assay Emax ([2]; Gα15)	EC50 [2, 5] [µM]	EC50 [2, 6] [µM]	ΔΔlogR Mean [2]	EC50 [2, 7] [µM]	EC50 [2, 8] [µM]	Bias factor [2]	response in the FLIPR assay, in words ([2]; R2/R3 U2OS cells transduced with Gα15)	agonist activity on its own in the DMR assay, in words ([1]; 25 μM SE-2 at lower sucralose concentrations)
COC(=O)[C@H](Cc1ccccc1)NC(=O)[C@@H](N)CC(=O)O [Aspartame] (H-Asp-Phe-OMe)			910	771	−0.72	143	−0.74	106	354	352	−0.03					
